In patent US10723744B2, “Transplantation therapies” (Aphios Corporation, priority 2007, dated 2020):
“Also recorded” adds a separate entry of the source. Where two headings read alike, the source gives them in different places.

Experiments:
[1] = cited from earlier work
HMEC = experiment: Alamar blue endothelial viability assay, HMEC; type: cell-based, human; details: single 1 h 100 nM treatment; time points 1, 24, 48 h
Procedure: (§1) The Alamar blue assay was used to determine endothelial viability after pharmacological intervention. Alamar blue contains a REDOX indicator that results in a color change upon chemical reduction by cellular metabolic activity. Endothelial cells were treated with Bryostatin-1 (100 nM) for 1 h and washed three times with HBSS. Alamar blue (10%) in media was added for 2.5 h at T=0, 24, or 48 hours after drug treatment and the ratio of absorbances (570-600 nm) was measured to determine metabolic activity.

HMEC monolayers = experiment: LTB4 induced neutrophil adhesion to the endothelial monolayer; type: cell-based, human; details: data not shown
Procedure: (§2) Confluent HMEC monolayers were plated on 48-well plates for adhesion studies, transwells for migration studies, and pretreated with a variety of pharmacological inhibitors and activators for 1 hour. Monolayers were washed three times with HBSS to remove all drug effects on the endothelium. To initiate migration, 100 nM LTB4 was added to the lower compartment and 500,000 neutrophils were added to the upper compartment and allowed to migrate for 3 h. For adhesion assays, LTB4 was added along with 500,000 neutrophils and allowed to adhere for 1 h (time of max. adhesion as determined in FIG. 1). […] The data are shown as % change in migration and adhesion as assessed by MPO assay. All values are expressed as means±SE. Data were analyzed using a one-way ANOVA with Bonferroni corrections for multiple comparisons. Probability (p) values of <0.05 were considered significant. ***p<0.001 vs. LTB4; **p<0.01 vs. LTB4; **p<0.05 vs. LTB4; n=4 for all experiments.

[2] = tested on: PKC-ε siRNA nucleofected HUVEC; experiment: LTB4 induced neutrophil migration across PKC-ε siRNA nucleofected HUVEC; type: cell-based, human; details: 1 hour pretreatment
Procedure: (§3) HUVECs were pretreated with Go-6983 (1, 10, 100 nM), or Go-6976 (1, 10, 100 nM) for 30 minutes, then spiked with 100 nM Bryostatin-1 for 1 hour. HUVECs previously nucleofected with PKC-δ, -ε, or control siRNA were just treated in Bryostatin-1 for 1 hour. HUVECs were washed three times and placed in a new plate containing either 500 μL 100 nM LTB4, or HBSS alone for control. Neutrophils were allowed to migrate for 3 h at 37° C. Migration was stopped by removing the inserts and migration was measured using the MPO assay.
(§4) Neutrophil migration was measured using myeloperoxidase (MPO) analysis. Cell culture inserts were first removed and plates were spun at 1,500 RPM for 5 min. The supernatant was removed, and MPO activity was measured using TMB/peroxide as chromogen. The reaction was stopped with sulfuric acid and absorbance was read at 450 nm using a microplate reader. All experiments were performed n=6. Data was expressed as “% neutrophil migration”, which allowed cumulative statistical analysis to be done and account for unpreventable batch-to-batch variations.
(§5) Optimum nucleofection parameters were determined using nucleofection of a control vector pmaxGFP. Using fluorescence microscopy and flow cytometry, 2 μg vector/500,000 cells nucleofected yielded the highest nucleofection (data not shown). HUVECs were grown to 70% confluency, trypsinized, and then counted. […]

HMECs [3] = type: cell-based, human; details: for TNF-α induced neutrophil TEM (Type II migration): HMECs, 24 h TNF-α 10 or 20 ng/ml, 1 hour pretreatment with 100 nM
Procedure: (§6) At confluency HMECs were treated for 1 h at 37° C. with Bryostatin-1 (10 nM, 100 nM) in MCDB-131 media or MCDB-131 media alone. Inserts were washed three times with Hank's Balanced Salt Solution (HBSS) (to eliminate drug effects on the neutrophils) and placed in a new plate containing either 500 μL 100 nM LTB4, or HBSS alone for control. 500 μL HBSS was then added to the top well and spiked with 500,000 neutrophils. For TNF-α experiments, HMECs were left in 20 ng/ml TNF-α in MCDB-131 for 24 h TNF-α was removed and HMECs washed three times. HMECs were treated for 1 h with Bryostatin-1 in endothelial growth medium (EGM) (10 nM, 100 nM). The drug was removed and cells were washed three times. 500 μL HBSS was added to both upper and lower chambers and spiked with 500,000 neutrophils. Neutrophils were allowed to migrate for 3 h at 37° C. Migration was stopped by removing the inserts and migration was measured using the myeloperoxidase (MPO) assay.
as §4

HUVEC = experiment: Alamar blue endothelial viability assay, HUVEC; type: cell-based, human
Procedure: as §1

T84 intestinal epithelia = details: cited from earlier work
HUVECs [4] = experiment: Neutrophil TEM restoration studies with PKC inhibitors; type: cell-based, human; details: HUVEC; for restoration of PMN TEM in response to LTB4 by PKC inhibitors (reversal of Bryostatin-1 protection): inhibitor pretreatment (Go-6983, Go-6976: 1, 10, 100 nM), then 100 nM Bryostatin-1
Procedure: as §3, §4

HMECs [5] = experiment: Time course of protection against LTB4 induced PMN TEM after 1 h pretreatment, HMECs; type: cell-based, human; details: for time after pretreatment up to which LTB4 induced migration is reduced: 100 nM, 1 h pretreatment, washed, tested at 0, 24, 48 hours; for time after pretreatment for which reduction in LTB4 induced migration is maintained: single 1 h 100 nM pretreatment
Procedure: FIG. 6 graphically depicts protection against LTB4 induced PMN TEM with PMA up to 48 h after pretreatment. HMECs were pretreated for 1 h with PMA and washed with HBSS three times to remove PMA prior to replacement of culture medium. Neutrophil migration studies were then performed at 0, 24, or 48 hours. Migration was stimulated by adding 500,000 neutrophils to the top well and 100 nM LTB4 to the lower well at 0, 24, and 48 hours after PMA pretreatment. […] PMA (100 nM, (10^−7M) reduced LTB4 induced migration up to 48 hours after 1 h of endothelial-specific pretreatment (***p<0.001).
Referring now to FIG. 7, FIG. 7 graphically depicts protection from LTB4 induced PMN TEM with Bryostatin-1 up to 48 hours after pretreatment. HMECs were pretreated for 1 h with Bryostatin-1 and washed with HBSS three times to remove Bryostatin-1 prior to replacement of culture medium. Neutrophil migration studies were then performed at 0, 24, or 48 hours. Migration was stimulated by adding 500,000 neutrophils to the top well and 100 nM LTB4 to the lower well at 0, 24, and 48 hours after Bryostatin-1 pretreatment. […] Bryostatin-1 (100 nM) reduced LTB4 induced migration up to 48 hours after 1 hour endothelial pretreatment (***p<0.001).
(§7) At confluency, HUVECs were treated for 1 h at 37° C. with Bryostatin-1 (10 nM, 100 nM) in EGM or EGM alone. Inserts were washed three times with HBSS (to reduce drug effects on the neutrophils) and migration assays were ran at t=0, 24, or 48 h. After time elapsed, HUVECs were placed in a new plate containing either 500 μL 100 nM LTB4 or HBSS alone for control. 500 μL HBSS was then added to the top well and spiked with 500,000 neutrophils. Neutrophils were allowed to migrate for 3 h at 37° C. Migration was stopped by removing the inserts and migration was measured using the MPO assay.
as §4

HUVECs [6] = experiment: Time course of protection against LTB4 induced PMN TEM after 1 h pretreatment, HUVECs; type: cell-based, human; details: single 1 h 100 nM pretreatment
Procedure: as §7, §4

[7] = tested on: PKC-δ siRNA nucleofected HUVEC; experiment: LTB4 induced neutrophil migration across PKC-δ siRNA nucleofected HUVEC; type: cell-based, human; details: 100 nM, 1 hour
Procedure: as §3, §4, §5

HMECs [8] = experiment: LTB4 induced neutrophil migration across HMEC monolayers (transwell, MPO assay); type: cell-based, human; details: 100 nM LTB4; for LTB4 induced neutrophil migration: HMECs on transwells, 1 h pretreatment 100 nM or 10 nM (PMA: 100, 10 or 1 nM), 3 h; for LTB4 induced neutrophil migration (PMN TEM) / LTB4 induced neutrophil TEM: HMECs; for LTB4 induced neutrophil migration (PMN TEM): 1 h pretreatment at 1 nM; for LTB4 induced neutrophil TEM: 1 h pretreatment, higher doses (100 nM)
Procedure: as §6, §4, §2

[9] = tested on: endothelial and epithelial cells; details: several types of endothelial and epithelial cells; cited from earlier work
endothelial cells = details: greater effect seen with PKC-α inhibition; cited from earlier work
[10] = single 1 h 100 nM treatment, time points 1, 24, 48 h (PMA: except 48 h)

CCC/C=C/C=C/C(=O)O[C@H]1/C(=C/C(=O)OC)C[C@H]2C[C@H]([C@@H](C)O)OC(=O)C[C@H](O)C[C@@H]3C[C@H](OC(C)=O)C(C)(C)[C@](O)(C[C@@H]4C/C(=C/C(=O)OC)C[C@H](/C=C/C(C)(C)[C@]1(O)O2)O4)O3 [Bryostatin-1]
cardiovascular disturbances or edema ([1]; Phase II cancer trials): no cardiovascular disturbances or evidence of edema have been observed | major side effects associated with use ([1]; Phase II cancer trials): myalgias, nausea, and vomiting | adverse effects ([1]; healthy subjects and cancer patients, dosing ranges higher than for 100 ng/ml plasma level): no adverse effects | HMEC viability (HMEC): no effect | LTB4 induced adhesion to the endothelial monolayer (HMEC monolayers): Neither PMA, nor Bryostatin-1 reduced LTB4 induced adhesion | LTB4 induced neutrophil migration after pretreatment, PKC-ε knocked down [2]: did not restore LTB4 induced migration; also recorded: still suppresses migration | migration induced by a combination of TNF-α pretreatment and LTB4 gradient (HMECs [3]; 24 h TNF-α pretreatment and 100 nM LTB4 gradient, data not shown): reduced migration | TNF-α induced neutrophil TEM (Type II migration) (HMECs [3]): attenuated Type II migration; also recorded: totally attenuated | HUVEC viability (HUVEC; [10]): no effect | barrier function (T84 intestinal epithelia): enhances barrier function | barrier loss induced by TNF-α (T84 intestinal epithelia): inhibits barrier loss | LTB4 induced neutrophil migration (HUVECs [4]; 100 nM Bryostatin-1, 1 hour, 100 nM LTB4, 3 h): reversed; also recorded: significantly suppressed LTB4 induced migration | time after pretreatment up to which LTB4 induced migration is reduced (HMECs [5]): up to 48 hours | time after pretreatment for which reduction in LTB4 induced migration is maintained (HMECs [5]): at least 48 h | time after pretreatment for which reduction in LTB4 induced migration is maintained (HMECs [5]; listed as Bryostatin): 48 h | time after pretreatment for which reduction in LTB4 induced migration is maintained (HUVECs [6]): 48 h | LTB4 induced neutrophil migration after pretreatment, PKC-δ knocked down [7]: restored the normal level of neutrophil trans endothelial migration | LTB4 induced neutrophil migration (HMECs [8]): reduced LTB4 induced migration in a dose dependent manner | LTB4 induced neutrophil migration (PMN TEM) (HMECs [8]): did not reduce PMN TEM | LTB4 induced neutrophil TEM (HMECs [8]): attenuated neutrophil TEM to levels below that of basal migration

Cn1c2ccccc2c2c3c(c4c5ccccc5n(CCC#N)c4c21)CNC3=O [GO-6976]
restoration of PMN TEM in response to LTB4 by PKC inhibitors (reversal of Bryostatin-1 protection) (HUVECs [4]): did not restore PMN TEM

CCCCCCCCCCCCCC(=O)O[C@@H]1[C@@H](C)[C@@]2(O)[C@@H](C=C(CO)C[C@]3(O)C(=O)C(C)=C[C@@H]23)[C@@H]2C(C)(C)[C@]12OC(C)=O [PMA, phorbol myristate acetate]
HMEC viability (HMEC): no effect | LTB4 induced adhesion to the endothelial monolayer (HMEC monolayers): Neither PMA, nor Bryostatin-1 reduced LTB4 induced adhesion | LTB4 induced neutrophil migration after pretreatment, PKC-ε knocked down [2]: did not restore LTB4 induced migration | migration induced by a combination of TNF-α pretreatment and LTB4 gradient (HMECs [3]): reduced migration | TNF-α induced neutrophil TEM (Type II migration) (HMECs [3]): attenuated Type II migration; also recorded: totally attenuated | HUVEC viability (HUVEC; 48 h after a single 1 h treatment with 100 nM): slight but significant reduction in viability | HUVEC viability (HUVEC; [10]): no effect | time after pretreatment up to which LTB4 induced migration is reduced (HMECs [5]): up to 48 hours | time after pretreatment for which reduction in LTB4 induced migration is maintained (HUVECs [6]): up to 48 h | LTB4 induced neutrophil migration (HMECs [8]): reduced LTB4 induced migration in a dose dependent manner | LTB4 induced neutrophil migration (PMN TEM) (HMECs [8]): did not reduce PMN TEM; also recorded: had no effect on LTB4 induced migration | LTB4 induced neutrophil TEM (HMECs [8]): attenuated neutrophil TEM to levels below that of basal migration | trans endothelial resistance (TER) [9]: decrease trans endothelial resistance (TER)

hypocrellin A
increased permeability caused by high glucose and PMA (endothelial cells): reduced this increased permeability

COc1ccc2c(c1)c(C1=C(c3c[nH]c4ccccc34)C(=O)NC1=O)cn2CCCN(C)C [Go-6983]
Bryostatin-1 mediated reduction in migration towards LTB4, effect of PKC inhibitor pretreatment (HUVECs [4]; inhibitor 10 or 100 nM, 30 minutes before 100 nM Bryostatin-1): prevented | restoration of PMN TEM in response to LTB4 by PKC inhibitors (reversal of Bryostatin-1 protection) (HUVECs [4]): dose dependently restored neutrophil migration | restoration of PMN TEM in response to LTB4 by PKC inhibitors (reversal of Bryostatin-1 protection) (HUVECs [4]; listed as G0-6983): dose dependently reversed

CN(C)CCCn1cc(C2=C(c3c[nH]c4ccccc34)C(=O)NC2=O)c2ccccc21 [GF10923X]
restoration of PMN TEM in response to LTB4 by PKC inhibitors (reversal of Bryostatin-1 protection) (HUVECs [4]): did not restore PMN TEM

CC(=O)c1c(O)c(C)c(O)c(Cc2c(O)c3c(c(C(=O)/C=C/c4ccccc4)c2O)OC(C)(C)C=C3)c1O [Rottlerin]
restoration of PMN TEM in response to LTB4 by PKC inhibitors (reversal of Bryostatin-1 protection) (HUVECs [4]): did not restore PMN TEM
